Experiments:
[1] = target: CNS nicotinic receptors (Rattus norvegicus, UniProt P09483+P12390); assay: Determination of binding to relevant receptor sites; settings: binding to certain CNS nicotinic receptors; read-out: Ki (inhibition constant, calculated from IC50 by the method of Cheng et al.)
Description: Determination of Binding to Relevant Receptor Sites
Binding of the compounds to relevant receptor sites was determined in accordance with the techniques described in U.S. Pat. No. 5,597,919 to Dull et al. Inhibition constants (Ki values), reported in nM, were calculated from the IC50 values using the method of Cheng et al., Biochem, Pharnacol. 22:3099 (1973).

[2] = Physical and chemical stability of salt; format: physicochemical
[3] = Water absorption (hygroscopicity) of salts; format: physicochemical
[4] = Water solubility of salt; format: physicochemical

Chain of CNS nicotinic receptors (P09483 31-630): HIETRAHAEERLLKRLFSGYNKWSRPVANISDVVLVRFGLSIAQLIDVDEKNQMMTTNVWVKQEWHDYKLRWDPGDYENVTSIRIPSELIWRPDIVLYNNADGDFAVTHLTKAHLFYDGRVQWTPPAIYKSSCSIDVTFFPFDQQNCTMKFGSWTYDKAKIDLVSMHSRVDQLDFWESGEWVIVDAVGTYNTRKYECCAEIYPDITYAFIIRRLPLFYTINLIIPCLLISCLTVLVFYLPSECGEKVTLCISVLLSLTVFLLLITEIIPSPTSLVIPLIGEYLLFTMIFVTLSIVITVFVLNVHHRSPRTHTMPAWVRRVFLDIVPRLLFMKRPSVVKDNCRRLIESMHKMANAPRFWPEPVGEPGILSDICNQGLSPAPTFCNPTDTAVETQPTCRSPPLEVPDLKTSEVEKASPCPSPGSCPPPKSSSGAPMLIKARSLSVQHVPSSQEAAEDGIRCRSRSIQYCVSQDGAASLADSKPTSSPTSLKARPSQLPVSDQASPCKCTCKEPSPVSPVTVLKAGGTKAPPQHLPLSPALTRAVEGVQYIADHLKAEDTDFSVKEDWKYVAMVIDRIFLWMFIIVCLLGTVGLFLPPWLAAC
Chain of CNS nicotinic receptors (P12390 25-500): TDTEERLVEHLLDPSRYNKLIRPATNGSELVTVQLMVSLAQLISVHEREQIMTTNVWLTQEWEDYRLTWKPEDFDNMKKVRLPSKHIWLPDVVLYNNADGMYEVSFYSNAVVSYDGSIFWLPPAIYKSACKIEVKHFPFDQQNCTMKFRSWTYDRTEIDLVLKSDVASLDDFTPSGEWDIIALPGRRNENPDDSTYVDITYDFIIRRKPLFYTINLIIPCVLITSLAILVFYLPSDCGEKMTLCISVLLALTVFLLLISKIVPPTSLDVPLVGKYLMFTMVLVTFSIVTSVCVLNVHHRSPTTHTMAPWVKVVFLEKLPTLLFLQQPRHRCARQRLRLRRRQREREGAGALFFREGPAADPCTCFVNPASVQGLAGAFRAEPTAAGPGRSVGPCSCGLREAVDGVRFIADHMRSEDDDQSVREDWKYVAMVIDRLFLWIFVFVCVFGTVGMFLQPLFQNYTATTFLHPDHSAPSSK

Structure (SMILES) | Ki [1] [nM] | stability [2] | amount of water absorbed ([3]; room temperature and 90% relative humidity) [%] | hygroscopicity compared with other salts ([3]; single salt: versus corresponding salt derived from galactaric acid (mucic acid)) | water solubility [4] | amount of water absorbed ([3]; 40° C. and 70% relative humidity) [%]
CN[C@@H](C)C/C=C/c1cncc(OC(C)C)c1 [Sample No. 1, (2S)-(4E)-N-methyl-5-[3-(5-isopropoxypyridin)yl]-4-penten-2-amine hemi-(di-p-toluoyl-L-tartrate)] | 6 |  |  |  |  | 
CN[C@@H](C)C/C=C/c1cncc(OC(C)C)c1 [Sample No. 2, (2S)-(4E)-N-methyl-5-[3-(5-isopropoxypyridin)yl]-4-penten-2-amine hemi-(di-p-toluoyl-D-tartrate)] | 5 | physically and chemically stable | 3.2 | less hygroscopic | water soluble | 
CN[C@@H](C)C/C=C/c1cncc(OC(C)C)c1.CN[C@@H](C)C/C=C/c1cncc(OC(C)C)c1.O=C(O)[C@@H](O)[C@H](O)[C@H](O)[C@@H](O)C(=O)O [hemigalactarate of (2S)-(4E)-N-methyl-5-[3-(5-isopropoxypyridin)yl)]-4-penten-2-amine, reference compound] |  |  |  |  |  | 11.8

From patent US6743812B1, “Pharmaceutical compositions and methods for use” (Targacept, Inc., priority 2000, dated 2004)
